Experiments:
[1] = target: cAMP-specific 3',5'-cyclic phosphodiesterase 4A (Homo sapiens, UniProt P27815); assay: PDE 4A Assay; conditions: pH 7.5; 30 °C
Experimental: Phosphodiesterase 4A (PDE4A) was assayed using an Sf9-expressed GST-fusion, and activity was monitored by hydrolysis of [3H]cAMP to [3H]AMP using the PDE-SPA kit from Amersham Pharmacia Biotech.

Endochitinase B1 [E177A] = Endochitinase B1 [E177A] (Aspergillus fumigatus, UniProt Q873X9, E177A); assay: Enzyme Inhibition Assay
Endochitinase B1 [E322A] = Endochitinase B1 [E322A] (Aspergillus fumigatus, UniProt Q873X9, E322A); assay: Enzyme Inhibition Assay
Endochitinase B1 [D175A] = Endochitinase B1 [D175A] (Aspergillus fumigatus, UniProt Q873X9, D175A); assay: Enzyme Inhibition Assay
Endochitinase B1 [A217G] = Endochitinase B1 [A217G] (Aspergillus fumigatus, UniProt Q873X9, A217G); assay: Enzyme Inhibition Assay
Endochitinase B1 [M243A] = Endochitinase B1 [M243A] (Aspergillus fumigatus, UniProt Q873X9, M243A); assay: Enzyme Inhibition Assay
Endochitinase B1 [D246A] = Endochitinase B1 [D246A] (Aspergillus fumigatus, UniProt Q873X9, D246A); assay: Enzyme Inhibition Assay
Endochitinase B1 [T138A] = Endochitinase B1 [T138A] (Aspergillus fumigatus, UniProt Q873X9, T138A); assay: Enzyme Inhibition Assay
Endochitinase B1 [R301K] = Endochitinase B1 [R301K] (Aspergillus fumigatus, UniProt Q873X9, R301K); assay: Enzyme Inhibition Assay
Endochitinase B1 [Y245F] = Endochitinase B1 [Y245F] (Aspergillus fumigatus, UniProt Q873X9, Y245F); assay: Enzyme Inhibition Assay

Chain of cAMP-specific 3',5'-cyclic phosphodiesterase 4A (P27815 whole entry, the tested form may be a part): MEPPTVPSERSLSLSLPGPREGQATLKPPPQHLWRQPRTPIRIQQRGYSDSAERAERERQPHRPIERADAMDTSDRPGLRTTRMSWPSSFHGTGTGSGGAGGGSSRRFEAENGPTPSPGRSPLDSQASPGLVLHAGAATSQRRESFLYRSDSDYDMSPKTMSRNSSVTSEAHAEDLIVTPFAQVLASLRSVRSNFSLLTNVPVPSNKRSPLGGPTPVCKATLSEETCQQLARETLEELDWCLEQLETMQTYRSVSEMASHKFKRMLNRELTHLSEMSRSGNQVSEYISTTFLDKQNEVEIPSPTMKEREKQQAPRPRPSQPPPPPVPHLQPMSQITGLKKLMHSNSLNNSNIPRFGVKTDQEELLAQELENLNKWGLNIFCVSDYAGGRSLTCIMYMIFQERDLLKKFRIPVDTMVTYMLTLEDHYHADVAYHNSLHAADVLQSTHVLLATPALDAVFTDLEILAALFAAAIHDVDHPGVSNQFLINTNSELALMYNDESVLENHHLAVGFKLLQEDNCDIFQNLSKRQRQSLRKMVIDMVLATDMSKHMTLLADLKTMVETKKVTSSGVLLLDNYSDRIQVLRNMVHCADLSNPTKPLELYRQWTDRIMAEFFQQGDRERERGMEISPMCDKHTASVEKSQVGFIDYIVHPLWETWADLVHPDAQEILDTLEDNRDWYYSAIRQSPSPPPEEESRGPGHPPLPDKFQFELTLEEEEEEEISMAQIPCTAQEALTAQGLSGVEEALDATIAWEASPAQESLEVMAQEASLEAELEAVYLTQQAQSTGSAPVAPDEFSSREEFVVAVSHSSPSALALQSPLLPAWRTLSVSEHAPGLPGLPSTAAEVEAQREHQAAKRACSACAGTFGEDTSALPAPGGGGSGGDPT

Row | IC50 [1] [µM] | SMILES | Kd (Endochitinase B1 [E177A]) [µM] | Kd (Endochitinase B1 [E322A]) [µM] | Kd (Endochitinase B1 [D175A]) [µM] | Kd (Endochitinase B1 [A217G]) [µM] | Kd (Endochitinase B1 [M243A]) [µM] | Kd (Endochitinase B1 [D246A]) [µM] | Kd (Endochitinase B1 [T138A]) [µM] | Kd (Endochitinase B1 [R301K]) [µM] | Kd (Endochitinase B1 [Y245F]) [µM]
1 | 747 | Cn1c(=O)c2c(ncn2C)n(C)c1=O |  |  |  |  |  |  |  |  | 
2 |  | CC(=O)CCCCn1c(=O)c2c(ncn2C)n(C)c1=O [1-(5-Oxohexyl)theobromine (pentoxifylline)] | 36 | 45 | 100 | 77 | 18 | 62 | 65 | 17 | 64
